The experiment relates to PMA-differentiated THP-1 cells. The experiment in a line: IL-1β production in PMA-differentiated THP-1 cells stimulated with gramicidin (hTHP-1 assay containing 2% fetal bovine serum; Procedures 1 and 2). Particulars: 2% fetal bovine serum. It counts as cell-based, human. The protocol:
The following protocol is suitable for testing the activity of the compounds disclosed herein. Procedure 1: IL-1β Production in PMA-Differentiated THP-1 Cells Stimulated with Gramicidin.
THP-1 cells were purchased from the American Type Culture Collection and sub-cultured according to instructions from the supplier. Cells were cultured in complete RPMI 1640 (containing 10% heat inactivated FBS, penicillin (100 units/ml) and streptomycin (100 μg/ml)), and maintained in log phase prior to experimental setup. Prior to the experiment, compounds were dissolved in dimethyl sulfoxide (DMSO) to generate a 30 mM stock. The compound stock was first pre-diluted in DMSO to 3, 0.34, 0.042 and 0.0083 mM intermediate concentrations and subsequently spotted using Echo550 liquid handler into an empty 384-well assay plate to achieve desired final concentration (e.g. 100, 33, 11, 3.7, 1.2, 0.41, 0.14, 0.046, 0.015, 0.0051, 0.0017 μM). DMSO was backfilled in the plate to achieve a final DMSO assay concentration of 0.37%. The plate was then sealed and stored at room temperature until required.
THP-1 cells were treated with PMA (Phorbol 12-myristate 13-acetate) (20 ng/ml) for 16-18 hours. On the day of the experiment the media was removed and adherent cells were detached with trypsin for 5 minutes. Cells were then harvested, washed with complete RPMI 1640, spun down, and resuspended in RPMI 1640 (containing 2% heat inactivated FBS, penicillin (100 units/ml) and streptomycin (100 μg/ml). The cells were plated in the 384-well assay plate containing the spotted compounds at a density of 50,000 cells/well (final assay volume 50 μl). Cells were incubated with compounds for 1 hour and then stimulated with gramicidin (5 μM) (Enzo) for 2 hours. Plates were then centrifuged at 340 g for 5 min. Cell free supernatant (40 μL) was collected using a 96—CHannel PlateMaster (Gilson) and the production of IL-1β was evaluated by HTRF (cisbio). The plates were incubated for 18 h at 4° C. and read using the preset HTRF program (donor emission at 620 nm, acceptor emission at 668 nm) of the SpectraMax i3x spectrophotometer (Molecular Devices, software SoftMax 6). A vehicle only control and a dose titration of CRID3 (100-0.0017 μM) were run concurrently with each experiment.
Procedure 2: IL-1β Production in PMA-Differentiated THP-1 Cells Stimulated with Gramicidin.
THP-1 cells were purchased from the American Type Culture Collection and sub-cultured according to instructions from the supplier. Prior to experiments, cells were cultured in complete RPMI 1640 (containing 10% heat inactivated FBS, penicillin (100 units/ml) and streptomycin (100 μg/ml)), and maintained in log phase prior to experimental setup. Prior to the experiment THP-1 were treated with PMA (Phorbol 12-myristate 13-acetate) (20 ng/ml) for 16-18 hours. Compounds were dissolved in dimethyl sulfoxide (DMSO) to generate a 30mM stock. On the day of the experiment the media was removed and adherent cells were detached with trypsin for 5 minutes. Cells were then harvested, washed with complete RPMI 1640, spun down, resuspended in RPMI 1640 (containing 2% heat inactivated FBS, penicillin (100 units/ml) and streptomycin (100 μg/ml). The cells were plated in a 384-well plate at a density of 50,000 cells/well (final assay volume […]). Compounds were first dissolved in assay medium to obtain a 5× top concentration of 500 μM. 10 step dilutions (1:3) were then undertaken in assay medium containing 1.67% DMSO. 5× compound solutions were added to the culture medium to achieve desired final concentration (e.g. 100, 33, 11, 3.7, 1.2, 0.41, 0.14, 0.046, 0.015, 0.0051, 0.0017 μM). Final DMSO concentration was at 0.37%. Cells were incubated with compounds for 1 hour and then stimulated with gramicidin (5 μM) (Enzo) for 2 hours. Plates were then centrifuged at 340 g for 5 min. Cell free supernatant (40 μL) was collected using a 96—CHannel PlateMaster (Gilson) and the production of IL-1β was evaluated by HTRF (cisbio). […]

Setting [1] is: Homo sapiens, THP-1, Table B2, class symbols, read-out: hTHP-1 IC50.
Where [2] appears, read: Table B2, class symbols, read-out: hTHP-1 IC50.
Setting [3] is: Homo sapiens, THP-1, Table B1, numeric bounds, read-out: Average IC50 of compounds in hTHP-1 assay: hTHP-1 IC50.

The structures appear in SMILES notation. Where two headings read alike, the source gives them in different places.

As to `CCC1CCc2c1nc1c(c2NC(=O)N=S(N)(=O)c2ccn(C(F)F)n2)CCC1` (single isomer, unassigned) [Compound 668d, (S, R) or (S, S) or (R, S) or (R, R)-1-(Difluoromethyl)-N′-((3-ethyl-1,2,3,5,6,7-hexahydrodicyclopenta [b,e]pyridin-8-yl)carbamoyl)-1H-pyrazole-3-sulfonimidamide], the half-inhibitory concentration (IC50) (Table B2, numeric bounds, read-out: hTHP-1 IC50) was above 30 µM.
As for `CC1(C)CCc2c1nc1c(c2NC(=O)N=S(N)(=O)c2cnc(C(C)(CO)CO)s2)CCC1` (centres unmarked) [Compound 724], under setting [1], the IC50 is 0.2 to 1 µM.
For the compound `Cc1c(C(C)C)nc2c(c1NC(=O)N=S(N)(=O)c1cnc(C(C)(C)O)s1)CCC2` (single isomer, unassigned) [Compound 650b, (S) or (R)-2-(2-Hydroxypropan-2-yl)-N′-((2-isopropyl-3-methyl-6,7-dihydro-5H-cyclopenta[b]pyridin-4-yl)carbamoyl)thiazole-5-sulfonimidamide], the IC50 under setting [2] lay in the range of 5 to 30 µM.
Consider `CC(C)(O)c1cnc(S(N)(=O)=NC(=O)Nc2c3c(nc4c2CCC42CC2)CCC3)s1` (single isomer, unassigned) [Compound 683b, (S) or (R)-5-(2-Hydroxypropan-2-yl)-N′-((1′,5′,6′,7′-tetrahydro-2′H-spiro[cyclopropane-1,3′-dicyclopenta[b,e]pyridin]-8′-yl)carbamoyl)thiazole-2-sulfonimidamide], for which the concentration for half-maximal inhibition (IC50) under setting [2] is 5 to 30 µM.
`Cc1c(C2CC2)nc2c(c1NC(=O)N=S(N)(=O)c1nc(C(C)(C)O)cs1)CCC2` (single isomer, unassigned) [Compound 626a]: the IC50 under setting [2] lay within 5 to 30 µM.
Consider `CCc1cc(NC(=O)N=S(N)(=O)c2cnc(C(C)(C)O)s2)c2c(n1)CCC2` (centres unmarked) [Compound 137, N′-((2-ethyl-6,7-dihydro-5H-cyclopenta[b]pyridin-4-yl)carbamoyl)-2-(2-hydroxypropan-2-yl)thiazole-5-sulfonimidamide], for which the half-maximal inhibitory concentration (IC50) under setting [3] was above 30 µM.
In the case of `CC(C)c1ncc(F)c(C(C)C)c1NC(=O)N=S(N)(=O)c1cnc(C(C)(C)O)s1` (centres unmarked) [Compound 164, N′-((5-fluoro-2,4-diisopropylpyridin-3-yl)carbamoyl)-2-(2-hydroxypropan-2-yl)thiazole-5-sulfonimidamide], the 50% inhibitory concentration (IC50) (Homo sapiens, THP-1, Table B1, class symbols, read-out: Average IC50 of compounds in hTHP-1 assay: hTHP-1 IC50) lay in the range of 1 to 5 µM.
For `CC(C)(O)c1cncc(S(N)(=O)=NC(=O)Nc2c3c(nc4c2CCC4(C)C)CCC3)c1` (single isomer, unassigned) [Compound 684a, (R) or (S)-N′-((3,3-dimethyl-1,2,3,5,6,7-hexahydrodicyclopenta [b,e]pyridin-8-yl)carbamoyl)-5-(2-hydroxypropan-2-yl)pyridine-3-sulfonimidamide], the IC50 under setting [2] was 0.04 to 0.2 µM.
On to `CCn1ccc(S(N)(=O)=NC(=O)Nc2c(C)c(C(F)(F)F)nc3c2CCC3)n1` (single isomer, unassigned) [Example 691, (R) or (S)-1-Ethyl-N′-((3-methyl-2-(trifluoromethyl)-6,7-dihydro-5H-cyclopenta[b]pyridin-4-yl)carbamoyl)-1H-pyrazole-3-sulfonimidamide], for which the IC50 (Table B3, hTHP-1 assay, class symbols, read-out: IC50) lay in the range of 0.2 to 1 µM.
`CCn1cc(F)c(S(N)(=O)=NC(=O)Nc2c(C)c(CC(F)(F)F)nc3c2CCC3)n1` (centres unmarked) [Example 619, 1-Ethyl-4-fluoro-N′-((3-methyl-2-(2,2,2-trifluoroethyl)-6,7-dihydro-5H-cyclopenta[b]pyridin-4-yl)carbamoyl)-1H-pyrazole-3-sulfonimidamide]: the IC50 (Homo sapiens, THP-1, Table B3, hTHP-1 assay, class symbols, read-out: IC50) fell in the range of 1 to 5 µM.
As to `CC(C)(O)c1ncc(S(N)(=O)=NC(=O)Nc2c3c(nc4c2CC4)CCC3)s1` (centres unmarked) [Compound 672, 2-(2-Hydroxypropan-2-yl)-N′-((2,4,5,6-tetrahydro-1H-cyclobuta[b]cyclopenta[e]pyridin-7-yl)carbamoyl)thiazole-5-sulfonimidamide], the IC50 under setting [1] was 5 to 30 µM.
As to `N[S@](=O)(=NC(=O)Nc1c2c(nc(C3CC3)c1C1CC1)CCC2)c1ccn(C(F)F)n1` [Compound 728a], under setting [1], the IC50 lay in the range of 5 to 30 µM.
Regarding `CCc1cc(F)c(S(N)(=O)=NC(=O)Nc2c3c(nc4c2CC[C@H]4C)CCC3)s1` (single isomer, unassigned) [Compound 720b, (S) or (R)-5-Ethyl-3-fluoro-N′-(((R)-3-methyl-1,2,3,5,6,7-hexahydrodicyclopenta[b, e]pyridin-8-yl)carbamoyl)thiophene-2-sulfonimidamide], the IC50 under setting [2] is 5 to 30 µM.
For the compound `NS(=O)(=NC(=O)Nc1c2c(nc3c1CCC31CC1)CCC2)c1cnn(C(F)F)c1` (centres unmarked) [Compound 638, 1-(Difluoromethyl)-N′-((1′,5′,6′,7′-tetrahydro-2′H-spiro[cyclopropane-1,3′-dicyclopenta[b,e]pyridin]-8′-yl)carbamoyl)-1H-pyrazole-4-sulfonimidamide], under setting [1], the IC50 fell in the range of 5 to 30 µM.
With `Cc1c(C2CC2)nc2c(c1NC(=O)N=S(N)(=O)c1nc(C(C)(C)O)cs1)CCC2` (single isomer, unassigned) [Compound 626b, (R) or (S)-N′-((2-cyclopropyl-3-methyl-6,7-dihydro-5H-cyclopenta[b]pyridin-4-yl)carbamoyl)-4-(2-hydroxypropan-2-yl)thiazole-2-sulfonimidamide], under setting [2], the concentration for half-maximal inhibition (IC50) lay within 0.04 to 0.2 µM.
In the case of `CCCc1cc(NC(=O)N=S(N)(=O)c2cnc(C(C)(C)O)s2)c2c(n1)CCC2` (centres unmarked) [Compound 112, 2-(2-hydroxypropan-2-yl)-N′-((2-propyl-6,7-dihydro-5H-cyclopenta[b]pyridin-4-yl)carbamoyl)thiazole-5-sulfonimidamide], the IC50 under setting [3] was above 30 µM.
Turning to `CCc1c(C2CC2)nc2c(c1NC(=O)N=S(N)(=O)c1cc(C(C)(C)O)cs1)CCC2` (single isomer, unassigned) [Compound 181a, (S) or (R)-N′-((2-cyclopropyl-3-ethyl-6,7-dihydro-5H-cyclopenta[b]pyridin-4-yl)carbamoyl)-4-(2-hydroxypropan-2-yl)thiophene-2-sulfonimidamide], the IC50 under setting [2] lay in the range of 1 to 5 µM.
`C[C@@](O)(CO)c1cc(F)c(S(N)(=O)=NC(=O)Nc2c3c(nc4c2CCC42CC2)CCC3)s1` (some centres unmarked) [Compound 716b]: the concentration for half-maximal inhibition (IC50) under setting [1] fell in the range of 0.2 to 1 µM.
With `Cc1c(C(F)(F)F)nc(C(F)(F)F)c(C)c1NC(=O)N=S(N)(=O)c1cc(C(C)(C)O)cs1` (single isomer, unassigned) [Example 756, (S) or (R)-N′-((3,5-dimethyl-2,6-bis(trifluoromethyl)pyridin-4-yl)carbamoyl)-4-(2-hydroxypropan-2-yl)thiophene-2-sulfonimidamide], the IC50 (Table B4, class symbols, read-out: hTHP-1 IC50) was 5 to 30 µM.
Consider `CC(C)c1ncc(F)c(C(C)C)c1NC(=O)N=S(N)(=O)c1sc(C(C)(C)O)cc1F` (single isomer, unassigned) [Compound 106b, (S) or (R)-3-fluoro-N′-((5-fluoro-2,4-diisopropylpyridin-3-yl)carbamoyl)-5-(2-hy-droxypropan-2-yl)thiophene-2-sulfonimidamide], for which the IC50 (Table B1, class symbols, read-out: Average IC50 of compounds in hTHP-1 assay: hTHP-1 IC50) was in the range of 1 to 5 µM.

Source of the values: patent publication US20230031406A1, “COMPOUNDS AND COMPOSITIONS FOR TREATING CONDITIONS ASSOCIATED WITH NLRP ACTIVITY” (Novartis AG, priority 2018, published 2023).
